Measured values: US11072634B2, “Inhibitors of transglutaminases” (Zedira GmbH, priority 2016, dated 2021)

Legend:
[1] = test system: CaCo2 (human colon carcinoma cell line); experiment: Metabolic activity, EZ4U-Assay; type: cell-based; conditions: highest concentration 1 mM
Description: (§1) The following cell lines are used for determination of cytotoxicity: • CaCo2 (human colon carcinoma cell line) • Huh7 (human liver carcinoma cell line).
(§2) Cells are cultivated in DMEM/10% FCS at 37° C. and 5% CO2 in a 96 well plate with an initial seeding density of 2×10^4 cells/well.
(§3) Transglutaminase inhibitors are added to the cells with final concentrations from 0.1 μM to 1 mM one hour after seeding. The different inhibitor dilutions are prepared in DMSO, resulting in a final concentration of 1% (v/v) DMSO in every well (2 μl inhibitor in 200 μl cell culture medium). Cycloheximide (2.5 μg/ml) and Camptothecin (0.2 μg/ml) are used as control compounds. All measurements are performed in triplicates.
(§4) Determination of metabolic activity using EZ4U-Assay (Biomedica, Cat. No. BI-5000).
(§5) After 48 h of incubation with inhibitors or controls, the tetrazolium substrate is added to the cells. Substrate turnover by the cells is measured over two hours at 450 nm (using 630 nm was reference wavelength).

[2] = test system: Huh7 (human liver carcinoma cell line); experiment: Metabolic activity, EZ4U-Assay; type: cell-based; conditions: highest concentration 1 mM
Description: as §1, §2, §3, §4, §5

[3] = target: T1, recombinant human tissue transglutaminase (rhTG2) (Homo sapiens, UniProt P21980); experiment: Inhibition of rec. human tissue transglutaminase (fluorescence, Abz-APE(CAD-DNP)QEA-OH); type: biochemical
T1 construct: purchased Zedira 1022 (so in the source); T022)
T1 sequence (P21980 1-687): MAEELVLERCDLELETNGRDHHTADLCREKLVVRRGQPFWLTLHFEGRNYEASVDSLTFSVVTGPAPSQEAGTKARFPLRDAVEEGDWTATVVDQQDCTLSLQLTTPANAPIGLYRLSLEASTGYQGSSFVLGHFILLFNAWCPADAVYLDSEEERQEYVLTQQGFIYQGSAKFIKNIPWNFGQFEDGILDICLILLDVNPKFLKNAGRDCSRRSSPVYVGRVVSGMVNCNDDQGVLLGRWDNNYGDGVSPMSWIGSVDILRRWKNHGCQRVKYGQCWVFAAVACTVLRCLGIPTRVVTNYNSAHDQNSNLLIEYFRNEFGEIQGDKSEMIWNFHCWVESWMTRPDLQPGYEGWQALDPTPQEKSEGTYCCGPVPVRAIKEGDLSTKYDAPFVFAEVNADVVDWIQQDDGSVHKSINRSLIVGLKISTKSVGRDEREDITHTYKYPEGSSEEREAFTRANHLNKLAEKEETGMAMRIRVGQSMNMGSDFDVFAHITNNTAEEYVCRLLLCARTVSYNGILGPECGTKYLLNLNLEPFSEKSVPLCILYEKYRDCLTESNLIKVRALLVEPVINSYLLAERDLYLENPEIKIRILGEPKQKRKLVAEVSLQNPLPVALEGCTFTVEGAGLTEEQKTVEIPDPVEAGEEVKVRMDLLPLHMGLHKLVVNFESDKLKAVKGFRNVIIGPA
Procedure, shortened: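 His6-rhTG2 in a master mix (50 mM Tris-HCl pH 7.4, 7.5 mM CaCl2, 150 mM NaCl, 5 mM DTT, 13.4 mM glycine methylester, 50 μM Abz-APE(CAD-DNP)QEA-OH) was added to serially diluted inhibitor. Fluorescence (ex 313/em 418 nm) was followed at 37 °C for 20 min. IC50 came from the 10–20 min slope relative to the 2% DMSO control.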

[4] = test system: CaCo2 (human colon carcinoma cell line); experiment: Cell Proliferation ELISA, BrdU; type: cell-based; conditions: highest concentration 1 mM
Description: as §1, §2, §3
(§6) Determination of proliferation using Cell Proliferation ELISA, BrdU (Roche, Cat. No. 11647229001).
(§7) After 24 h of incubation with inhibitors or controls, BrdU is added to the cells. After further incubation for 18 h, the cells are fixed and cellular DNA becomes denatured. A monoclonal antibody (conjugated with peroxidase) raised against BrdU is added to the wells and binds to BrdU which is incorporated into the DNA. Substrate solution is added and absorbance at 450 nm is recorded. Further analysis is performed according to the manufacturer's protocol.

[5] = test system: Huh7 (human liver carcinoma cell line); experiment: Cell Proliferation ELISA, BrdU; type: cell-based; conditions: highest concentration 1 mM
Description: as §1, §2, §3, §6, §7

| SMILES | Cytotoxicity concentration (>10% deviation from negative control), EZ4U, Caoo2 [1] [mM] | Cytotoxicity concentration (>10% deviation from negative control), EZ4U, Huh-7 [2] [mM] | IC50 ([3]; Table 1, TG2 inhibitors) [nM] | Cytotoxicity concentration (>10% deviation from negative control), BrdU, Caco2 [4] [mM] | Cytotoxicity concentration (>10% deviation from negative control), BrdU, Huh-7 [5] [mM] | IC50 ([3]; Table 2, TG2 inhibitors) [nM] |
| --- | --- | --- | --- | --- | --- | --- |
| CC(=O)N1CCC[C@H]1C(=O)N[C@@H](CCC(=O)C(N)=O)C(=O)N1CCN(c2ncccc2C)CC1 [Compound E07, (S)-1-acetyl-N—((S)-6-amino-1-(4-(3-methylpyridin-2-yl)piperazin-1-yl)-1,5,6-trioxohexan-2-yl)pyrrolidine-2-carboxamide] | >1 | >1 | 100 | >1 | >1 |  |
| CCCCCNC(=O)C(=O)CC[C@H](NC(=O)[C@@H]1CCCN1C(C)=O)C(=O)Nc1cccn(CC(=O)NCC(CC)CC)c1=O [Compound E22, (S)-2-((S)-1-acetylpyrrolidine-2-carboxamido)-N1-(1-(2-(2-ethylbutylamino)-2-oxoethyl)-2-oxo-1,2-dihydropyridin-3-yl)-5-oxo-N6-pentylhexanediamide] |  |  |  |  |  | 85 |
| CC(=O)N[C@@H](CCC(=O)C(N)=O)C(=O)N1CCN(c2ccccc2Cl)CC1 [Compound E06, (S)-5-acetamido-6-(4-(2-chlorophenyl)piperazin-1-yl)-2,6-dioxohexanamide] | >1 | >1 | 100 | >1 | >1 |  |
| COC(=O)[C@H](CC(C)C)NC(=O)[C@@H]1CCCN1C(=O)[C@@H](NC(=O)[C@H](CCC(=O)C(N)=O)NC(=O)OCc1ccccc1)C(C)C [Compound E02, (S)-methyl 2-((S)-1-((S)-2-((S)-6-amino-2-(benzyloxycarbonylamino)-5,6-dioxo-hexanamido)-3-methylbutanoyl)pyrrolidine-2-carboxamido)-4-methylpentanoate] | >1 | >1 | 70 | >1 | >1 |  |
